Experimental data reported in US20100280098A1, “RECEPTOR TARGETED OLIGONUCLEOTIDES” (priority 2007, published 2010).
“Also recorded” adds a separate entry of the source.

How the values were obtained:
A375SM-Luc705-B cells [1] = assay: Luciferase splice-correction assay with peptide-oligonucleotide conjugates; format: cell-based; conditions: for luciferase expression: dose-response and mismatch control studies, luciferase after 48 h
Experimental: Cell Lines and Plasmids: A375SM melanoma cells were obtained from Dr. J. Bear (University of North Carolina, Chapel Hill, N.C., United States of America), and were cultured in Dulbecco's minimum essential medium (DMEM; Invitrogen, Carlsbad, Calif., United States of America) supplemented with L-glutamine and 10% fetal bovine serum (FBS). Plasmid pLuc/705, containing an aberrant intron inserted into the firefly luciferase coding sequence, was obtained from Dr. R. Kole (University of North Carolina, Chapel Hill, N.C., United States of America). See Kang et al. (1998) Biochemistry, 37, 6235-6239. Stable transfectants were obtained by cotransfecting A375SM cells with one part of hygromycin resistant plasmid pcDNA3.1(+)/hygro (Invitrogen, Carlsbad, Calif., United States of America) and ten parts of pLuc/705 using LIPOFECTAMINE™ 2000 (Invitrogen, Carlsbad, Calif., United States of America) as per manufacturer's instructions. Selection was carried out in DMEM containing 200 μg/mL hygromycin and 10% FBS. The resulting pool of hygromycin resistant cells was referred to as A375SM-Luc705-B.
Oligonucleotide treatment and luciferase assay: A375SM-Luc705-B cells were plated on 12 well plates (at 1.0 or 1.5×10^5 cells per well in various experiments) in DMEM supplemented with 10% FBS. The following day, medium was changed to reduced serum OPTI-MEM I (Invitrogen, Carlsbad, Calif., United States of America). […] Four hours after treatment, 1% FBS was added to each well. Twenty four hours after oligonucleotide treatment, medium was replaced with DMEM containing 1% FBS, and at various times thereafter cell lysates were collected for luciferase assay.
Cells were usually harvested 48 hours after oligonucleotide treatment, or at times indicated in the figures, and activity determined using a Luciferase assay kit (Promega, Madison, Wis., United States of America). Measurements were performed on a Monolight 2010 instrument (Analytical Luminescence Laboratory, San Diego, Calif., United States of America).

A375SM-Luc705-B cells [2] = assay: Luciferase splice-correction assay with albumin conjugates; format: cell-based
Experimental: Oligonucleotide Treatment of Cells and Luciferase Assay: A375SM-Luc705-B cells were seeded onto 12 well plates at 1×10^5 cells per well in medium containing 10% FBS. […] After 4 h of treatment, FBS was added to each well to 1%. After 24 h, cells were washed with DMEM medium containing 10% FBS and incubated in DMEM supplemented with 1% FBS for 48 h prior to harvest.

A375SM-Luc705-B cells [3] = assay: Total cellular uptake of Tamra-labeled oligonucleotides (microfluorimeter); format: cell-based; conditions: for cell viability: 1-10 mM β-cyclodextrin, 0.2-20 μM cytochalasin D; for effect on uptake of the RGD-oligonucleotide conjugate: inhibitor 15 min before 100 nM RGD-623-Tamra, uptake after 4 h
From the text: (§1) Cell Uptake, Confocal Fluorescence Microscopy, and Flow Cytometry: Total cellular uptake of Tamra-labeled oligonucleotides was monitored using a Nanodrop microfluorimeter (Nanodrop Technologies, Wilmington, Del., United States of America). After treatment with oligonucleotides the cells were lysed in a mild non-ionic detergent buffer and the Tamra fluorescence (emission 583 nm) was quantitated based on a linear standard curve of unconjugated Tamra in buffer. Intracellular distribution of Tamra-labeled oligonucleotides was examined using an Olympus Confocal FV300 fluorescent microscope (Olympus America Inc., Center Valley, Pa., United States of America) with 60X-oil immersion objective, as previously described. See Astriab-Fisher et al. (2004) Biochem. Pharmacol., 68, 403-407. Expression levels of αvβ3 were monitored by immunostaining with an anti-human-αvβ3 monoclonal (Chemicon, Temecula, Calif., United States of America) followed by an Alexa 488 rabbit antimouse secondary antibody, with analysis by flow cytometry using a DakoCytomation (Glostrop, Denmark) machine.

A375SM-Luc705-B cells [4] = assay: Subcellular distribution and co-localization by confocal fluorescence microscopy (peptide conjugate); format: cell-based; conditions: for co-localization with dextran / co-localization with transferrin: 2 h; for co-localization with dextran / co-localization with transferrin / co-localization with transferrin or dextran markers: live cells, 100 nM; for co-localization with transferrin or dextran markers: 24 h
From the text: as §1

A375SM-Luc705-B cells [5] = assay: Total cellular accumulation of albumin conjugates (fluorimeter); format: cell-based; conditions: nontoxic concentrations, 30 min prior to 100 nM conjugate, 4 h
Experimental: Cellular Uptake and Confocal Microscopy: Cells were seeded onto either 12 well plates at 1×10^5 cells per well for cellular uptake measurements or in 12 well glass-bottom plates at 2×10^4 cells per well for live cell analysis by confocal microscopy. […], the cells were either lysed for measurement of Tamra fluorescence using a Nanodrop microfluorimeter (Nanodrop Technologies, Wilmington, Deleware, United States of America) or washed with DMEM containing 10% FBS and then placed in DMEM without phenol red, supplemented with 1% FBS, for confocal microscopy analysis. Co-localization of Tamra-labeled oligonucleotides with Alexa 488 labeled Transferrin or Dextran (Molecular Probes, Beaverton, Oreg., United States of America) in live cell was also examined by confocal microscopy. An Olympus confocal microscope with a 60× objective lens was used, and the data were processed using Fluoview software (Olympus, Center Valley, Pa., United States of America) as described in Example 1.

[6] = system: αvβ3-positive M21+ human melanoma cells; assay: Total cellular uptake in αvβ3-positive cells; format: cell-based; conditions: 12.5-100 nM
From the text: (§2) Results represent means and standard errors of triplicate determinations and are expressed as RFUs per microgram cell protein.
as §1

αvβ3 = assay: Cell surface αvβ3 level by immunostaining and flow cytometry; format: cell-based, human; conditions: 200 nM, 24 h exposure
Experimental: Then, αvβ3 levels were determined by immunostaining with anti-αvβ3 antibody. […] The y axis of each panel indicates the number of cells, while the x axis indicates the log of fluorescence intensity.
as §1

A375SM-Luc705-B cells [7] = assay: Short-term toxicity, viable cell count after 48 h (peptide conjugate); format: cell-based
Experimental: Toxicity Studies: Cells were treated with various concentrations of oligonucleotides or conjugates under the same conditions as used for the luciferase induction experiments. After 48 h in medium plus 1% FBS, cells were trypsinized and viable cells were counted in an electronic particle counter.

[8] = Re-dissolution of lyophilized conjugate in sterile water; format: physicochemical; conditions: after dialysis and lyophilization
From the text: The peptide conjugation reaction occurred between the maleimide of the bicyclic RGD peptide and the 5′ thiol (—SH) of the oligonucleotide (2). The reaction proceeded efficiently and more than 95% of the starting oligonucleotide (2) was converted into conjugates with bicyclic RGD. The conjugates were purified by ion-exchange chromatography (Resource™ Q column, GE Healthcare, Chalfont St. Giles, United Kingdom) under highly denaturing conditions to avoid any sort of precipitation, although this was not expected to be a problem for this type of peptide. […] Similar approaches were used for the preparation of other oligonucleotides and conjugates. In each case the structure of the final product was confirmed by MALDI-TOF mass spectroscopy.

[9] = system: αvβ3-negative M21− human melanoma cells; assay: Total cellular uptake in αvβ3-negative cells; format: cell-based; conditions: 12.5-100 nM
From the text: as §2, §1

[10] = listed as RGD-623-Tamra conjugate

## 5′-GTAATTATTTATAATCGTCC-Tamra-3′ [5MM623-Tamra]
A375SM-Luc705-B cells [1]
  luciferase expression: failed to produce an increase in luciferase expression

## 5′-GTTATTCTTTAGAATGGTGC-3′ (antisense GTTATTCTTTAGAATGGTGC; all 2'-O-methyl, all phosphorothioate, T or U not given here; further chemistry not fully specified) [compound 623]
A375SM-Luc705-B cells [2]; 25-200 nM, 72 h
  luciferase activity: did not cause a significant increase in luciferase activity
A375SM-Luc705-B cells [1]; RGD conjugate or lipofection, concentrations up to 75 nM
  influence of the Tamra fluorophore on the action of 623: did not affect the action of 623
A375SM-Luc705-B cells [1]; concentrations above 100 nM
  influence of the Tamra fluorophore on the action of 623: slight augmentation of effect by Tamra

## CC(C)[C@@H]1NC(=O)[C@@H](Cc2ccccc2)NC(=O)[C@H](CC(=O)O)NC(=O)CNC(=O)[C@H](CCCN=C(N)N)NC1=O [RGDfV]
A375SM-Luc705-B cells [2]; at the concentrations used
  toxicity of the blocking peptide: does not cause cell detachment or other obvious toxicity
A375SM-Luc705-B cells [2]; excess peptide (0.1-10 μM) 30 min prior to 100 nM conjugate, 48 h
  effect on the ability of the RPA-623 conjugate to activate luciferase: completely blocks
A375SM-Luc705-B cells [1]; 0.1-100 μM peptide 30 min prior to 200 nM conjugate, 48 h
  inhibition of the effect of RGD-623-Tamra on luciferase expression: progressive inhibition
A375SM-Luc705-B cells [3]; excess peptide
  effect of co-incubation on the increased uptake of the RGD-conjugate: could be blocked
A375SM-Luc705-B cells [4]; data not shown
  effect of co-incubation on cell associated fluorescence of RGD-623-Tamra conjugate: substantially reduced total cell associated fluorescence
A375SM-Luc705-B cells [5]
  effect on cellular accumulation of RPA-623-Tamra: inhibited

## C=C1[C@@H](C)[C@H]2[C@H](Cc3ccccc3)NC(=O)[C@]23[C@H](OC(C)=O)/C=C/[C@@](C)(O)C(=O)[C@@H](C)C/C=C/[C@H]3[C@@H]1O [cytochalasin D]
A375SM-Luc705-B cells [3]
  cell viability: No loss of cell viability was detected
  effect on uptake of the RGD-oligonucleotide conjugate: block the uptake
A375SM-Luc705-B cells [3]; highest concentration
  cell morphology: caused some cell rounding
A375SM-Luc705-B cells [5]
  effect on cellular accumulation of RPA-623-Tamra: inhibited

## OC[C@H]1O[C@@H]2O[C@H]3[C@H](O)[C@@H](O)[C@@H](O[C@H]4[C@H](O)[C@@H](O)[C@@H](O[C@H]5[C@H](O)[C@@H](O)[C@@H](O[C@H]6[C@H](O)[C@@H](O)[C@@H](O[C@H]7[C@H](O)[C@@H](O)[C@@H](O[C@H]8[C@H](O)[C@@H](O)[C@@H](O[C@H]1[C@H](O)[C@H]2O)O[C@@H]8CO)O[C@@H]7CO)O[C@@H]6CO)O[C@@H]5CO)O[C@@H]4CO)O[C@@H]3CO [β-cyclodextrin]
A375SM-Luc705-B cells [3]
  cell viability: No loss of cell viability was detected
  effect on uptake of the RGD-oligonucleotide conjugate: block the uptake
A375SM-Luc705-B cells [5]
  effect on cellular accumulation of RPA-623-Tamra: inhibited

## Bivalent-RGD-Mal-S—(CH2)6-5MM623-Tamra
A375SM-Luc705-B cells [1]
  luciferase expression: failed to produce an increase in luciferase expression

## BivalentRGD-Mal-S—(CH2)6-623-Tamra [RGD-623-Tamra]
A375SM-Luc705-B cells [1]
  concentration dependence of the luciferase effect: rises rapidly between zero and 100 nM and then begins to plateau
  luciferase expression: produced a significant increase in luciferase expression
A375SM-Luc705-B cells [1]; 200 nM, 48 h after removal of the oligonucleotide
  time of maximum effect on luciferase expression: 72 h
A375SM-Luc705-B cells [1]; 24-120 h, conjugate 200 nM, complex 100 nM
  time course of the effect on luciferase expression: rose gradually with time
A375SM-Luc705-B cells [1]; 48 h
  concentration at which substantial effects on luciferase were observed: 50 nM
  low concentration at which significant effects were still observed: 5 nM
A375SM-Luc705-B cells [1]; higher concentrations of RGD-623, complex at 100 nM oligonucleotide
  effect on luciferase relative to 623/cationic lipid complex: approximately 50%
A375SM-Luc705-B cells [3]; 12.5, 50 or 100 nM, 4 h
  total cellular uptake compared to unconjugated oligonucleotide: ~2 fold
A375SM-Luc705-B cells [4]
  co-localization with dextran: Substantial overlap
  co-localization with transferrin: no overlap
  co-localization with transferrin or dextran markers: Substantial overlap
A375SM-Luc705-B cells [4]; [10]
  co-localization with dextran: significant co-localization
  co-localization with transferrin: no co-localization
  co-localization with transferrin or dextran markers: substantial co-localization
A375SM-Luc705-B cells [4]; between 2 and 6 h, fixed permeabilized cells, 50 nM
  co-localization with caveolin-1: significant co-localization
A375SM-Luc705-B cells [4]; early (6 h), fixed cells, 50 nM
  co-localization with αvβ3: Early co-localization
A375SM-Luc705-B cells [4]; fixed cells
  co-localization with other markers (EAA1, LAMP1, clathrin): No significant co-localization
A375SM-Luc705-B cells [4]; late (24 h), fixed cells, 50 nM
  co-localization with trans-Golgi marker TG230: some co-loacalization
A375SM-Luc705-B cells [4]; living cells, 200 nM, complex 100 nM
  cellular uptake seen by confocal microscopy: substantial cellular uptake was observed
A375SM-Luc705-B cells [4]; living cells, 200 nM, complex 100 nM, listed as RGD-623-Tamra conjugate
  nuclear fluorescence: no readily observable nuclear fluorescence; also recorded: generally free of fluorescence
[6]
  uptake by M21+ cells as compared to M21− cells: about 3 times
αvβ3
  level of surface αvβ3 expression: no effect
αvβ3; listed as RGD-623 conjugate
  level of surface αvβ3 expression: lack of down-regulation of αvβ3
A375SM-Luc705-B cells [7]; concentration range needed for splice correction
  tolerability by cells: well-tolerated by cells
A375SM-Luc705-B cells [7]; concentrations up to 1000 nM, 48 h
  short-term toxicity (viable cells): little effect
A375SM-Luc705-B cells [7]; higher concentrations
  cell loss: did not result in significant cell loss
  cell rounding: Some cell rounding was observed
[8]
  re-dissolution in sterile water: re-dissolved in sterile water without any difficulty
[9]
  uptake in M21− cells as compared to 623-Tamra control: slightly greater uptake
